Entries after “also recorded” stand apart in the source; their conditions may differ.
Key:
[1] = tested on: PC12 cells expressing poly(Q)103-Htt-EGFP; experiment: Poly(Q) toxicity & viability analysis (cellular model of Huntington's disease); type: cell-based, rat; details: for M = Huntington's poly-Q toxicity attenuation: score; for K = Huntington's poly-Q toxicity attenuation: summary score; for Viability of PC12 cells upon induction of toxic poly(Q)103-Htt-EGFP aggregates: 2.5 μM, 5 μM, 10 μM and 20 μM; for Assay 20: Huntington's poly-Q toxicity attenuation: 10 uM, YES/NO
Protocol: Viability assays were performed as described before (Aiken et al., 2004). PC12 cells that stably express the inducible poly(Q)103-Htt-EGFP were grown in culture. […] Cell viability was analyzed 48 hrs later by measuring ATP content with CellTiter-Glo.
Toxic protein aggregation is a key feature of many age-related neurodegenerative diseases, including Alzheimer's and Huntington's disease (Caughey and Lansbury, 2003; Ross and Poirier, 2004). A number of animal models (Phillips et al., 2009) and cell models (Schlachetzki et al., 2013) have been established to study these diseases. For this purpose, PC12 rat pheochromocytoma cells display neuronal features and produce neurotransmitters and have been used extensively to study neuronal phenotypes, including synaptic transmission and neurological diseases. […] In this model, induced expression of poly(Q)103-Htt-EGFP could lead to the formation of aggregates and exert substantial toxicity in cells.

in vitro = type: cell-based, human; details: human
[2] = tested on: HTB-178 lung tumor cells (EGFR+, PIK3CA+, RB1−, TP53−); experiment: Killing effects on HTB-178 tumor cells; type: cell-based, human; details: for Assay 21: Potential killing effects on HTB-178 tumor cells: 10 uM, YES/NO; for Toxicity / viability of HTB-178 lung tumor cells: 10 μM, preliminary data; for Potential killing effects on HTB-178 tumor cells, 1st / Potential killing effects on HTB-178 tumor cells, 2nd: Assay 1(y), at 10 uM
human protein targets = details: PubChem database queries; cited from earlier work

SMILES | M = Huntington's poly-Q toxicity attenuation [1] | K = Huntington's poly-Q toxicity attenuation [1] | Potential killing effects on HTB-178 tumor cells, 1st [2] | also measured
O=C(NCc1cccnc1)/C(=C\c1cccc(Oc2ccccc2)c1)S(=O)(=O)c1ccccc1 [Gr-7A] | 0 | 0 | YES; | cytotoxicity at 24 h, 10 uM (in vitro): 84%; Assay 21: Potential killing effects on HTB-178 tumor cells [2]: YES; Toxicity / viability of HTB-178 lung tumor cells [2]: exerted more pronounced toxicity; also recorded: significantly reduce the viability; Potential killing effects on HTB-178 tumor cells, 2nd [2]: YES.
Cc1cc(C)c(C(=O)/C=C/c2ccccc2F)c(O)n1 [O18] | 0 | 0 |  | Potential targets: human protein targets (confirmed) (human protein targets): JAK2
[O-][n+]1onc2c3nsnc3c(Br)cc21 [O17] | 0 | 0 | YES; | Potential killing effects on HTB-178 tumor cells, 2nd [2]: YES.
COc1ccc(C(=O)/C=C/c2ccccc2Br)c(OC)c1 [Gr-4B] | 0 | 0 |  | 
CCc1ccccc1NC(=O)c1ccc([N+](=O)[O-])o1 [Gr-1C] | 1 | 1 |  | Viability of PC12 cells upon induction of toxic poly(Q)103-Htt-EGFP aggregates [1]: consistently increased the viability; Assay 20: Huntington's poly-Q toxicity attenuation [1]: YES
Cc1cc(N)n(-c2ccccc2C(=O)O)n1 [Gr-6A] | 0 | 0 | YES; | 
O=C(/C=C/c1cn(-c2ccccc2)nc1-c1cccnc1)c1ccccc1 [Gr-6B] | 1 | 1 |  | Viability of PC12 cells upon induction of toxic poly(Q)103-Htt-EGFP aggregates [1]: consistently increased the viability; Assay 20: Huntington's poly-Q toxicity attenuation [1]: YES
COc1ccc(/C=C2\SC(=N)N(c3nccs3)C2=O)cc1 [O21] | 0 | 0 |  | 
COc1cccc(/C=C2\CN(C)C/C(=C\c3cccc(OC)c3OC)C2=O)c1OC [O23] | 0 | 0 | YES; | cytotoxicity at 24 h, 10 uM (in vitro): 40%
NS(=O)(=O)c1ccc(NC(=O)c2ccc([N+](=O)[O-])o2)cc1 [Gr-1A] | 1 | 1 | YES; | Viability of PC12 cells upon induction of toxic poly(Q)103-Htt-EGFP aggregates [1]: consistently increased the viability; Assay 20: Huntington's poly-Q toxicity attenuation [1]: YES; cytotoxicity at 24 h, 10 uM (in vitro): 30%
N=C1S/C(=C\c2cn(-c3ccccc3)nc2-c2cccs2)C(=O)N1c1nccs1 [Gr-6C] | 0 | 0 |  | 
CNC(=O)/C(C#N)=C/c1c(Oc2ccc(C(C)(C)C)cc2)nc2ccccn2c1=O [Gr-5D] | 0 | 0 |  | 
Oc1ccccc1-c1noc(-c2ccccc2O)n1 [O27] | 0 | 0 |  | Assay 21: Potential killing effects on HTB-178 tumor cells [2]: YES
O=C(Nc1cccc(Cl)c1)c1ccc([N+](=O)[O-])o1 [Gr-1D] | 0 | 0 |  | 
O=[N+]([O-])c1ccccc1S(=O)(=O)Nc1cccc2cccnc12 [Gr-3A] | 0 | 0 |  | Potential targets: human protein targets (confirmed) (human protein targets): ADRBK1, APLNR, BARD1, BAZ2B, BRCA1, CCR6, DRD3, GMNN, IL1B,; also recorded: MDM2, MDM4, NFE2L2, NFKBIA, NOD1, NOD2, OPRK1, RBBP8, RELA,; also recorded: SIX1, SMAD3, TDP1
O=C(Nc1cccc(C(F)(F)F)c1)c1ccc([N+](=O)[O-])o1 [Gr-1E] | 0 | 0 |  | 
CCc1ccc(Oc2nc3ccccn3c(=O)c2/C=C(\C#N)C(=O)NCc2ccco2)cc1 [Gr-5B] | 0 | 0 |  | 
Oc1ncnc2sc3c(c12)CCC3 [O14] | 0 | 0 |  | Potential targets: human protein targets (confirmed) (human protein targets): TRHR

SMILES | M = Huntington's poly-Q toxicity attenuation [1] | K = Huntington's poly-Q toxicity attenuation [1] | Potential killing effects on HTB-178 tumor cells, 1st [2] | also measured
CC(C)(C)c1ccc(OCC(=O)Nc2ccc3c4c(cccc24)C(=O)NC3=O)cc1 [O22] | 0 | 0 |  | Potential targets: human protein targets (confirmed) (human protein targets): APOBEC3F, CFTR, NCOA3, OPRD1, OPRM1, PPARG, S1PR4, TDP1
CCc1ccc(Oc2nc3ccccn3c(=O)c2/C=C(\C#N)C(=O)NC2CCCCC2)cc1 [Gr-5A] | 0 | 0 | YES; | 
CCCN1C/C(=C\c2ccc(F)cc2)C(=O)/C(=C/c2ccc(F)cc2)C1 [O15] | 0 | 0 | YES; | Potential killing effects on HTB-178 tumor cells, 2nd [2]: YES.
O=C1NCCCc2cc(Cl)sc21 [O1] | 0 | 0 |  | 
CCCC(=O)Nc1ccc(-c2cn3cccc(C)c3n2)cc1 [O12] | 0 | 0 | YES; | 
O=C(Nc1nc(C23CC4CC(CC(C4)C2)C3)cs1)C(c1ccccc1)c1ccccc1 [O10] | 0 | 0 |  | 
O=C(NCc1cccnc1)/C(=C/c1ccc(-c2ccc(Cl)cc2)o1)S(=O)(=O)c1ccccc1 [Gr-7C] | 1 | 1 |  | Potential targets: human protein targets (confirmed) (human protein targets): ABHD5, ADRB2, ATXN2, BARD1, BRCA1, CFTR, CHRM4, CYP2C19,; also recorded: EPAS1, GMNN, GPR183, HIF1A, HNF4A, IDH1, IL1B, KCNJ1, MDM2,; also recorded: MDM4, MITF, NCOA1, NCOA2, NCOA3, NFE2L2, NOD1, NOD2, NOD2,; also recorded: NPBWR1, NPSR1, NPY1R, NPY2R, NR2E3, NR2F2, NR5A1, NR5A2, PLIN5,; also recorded: RIPK2, S1PR1, S1PR2, TDP1, TNF, VDR; Viability of PC12 cells upon induction of toxic poly(Q)103-Htt-EGFP aggregates [1]: consistently increased the viability; Assay 20: Huntington's poly-Q toxicity attenuation [1]: YES; cytotoxicity at 24 h, 10 uM (in vitro): 60%
O=C(Nc1cc(C(F)(F)F)ccc1Cl)c1ccc([N+](=O)[O-])o1 [Gr-1B] | 0 | 0 |  | 
Nc1ccccc1S(=O)(=O)Nc1cccc2cccnc12 [Gr-3C] | 0 | 0 |  | Potential targets: human protein targets (confirmed) (human protein targets): GAPDH, NFKBIA, RELA
COc1cc2c(no[n+]2[O-])n2nnnc12 [O11] | 0 | 0 | YES; | 
CC1C(=O)C(C)C(c2cc(Cl)ccc2O)NC1c1cc(Cl)ccc1O (stereo not drawn) [O6] | 0 | 0 | YES; | Potential targets: human protein targets (confirmed) (human protein targets): ADAM10, ADAM17, ATXN2, GLP1R, IDH1, IL1B, KCNE1, KCNQ1, NTSR1
O=C(/C(=C/c1ccc(Cl)cc1)c1nc2ccccc2[nH]1)c1ccccc1 [Gr-4D] | 0 | 0 | YES; | Potential targets: human protein targets (confirmed) (human protein targets): ABHD5, ATXN2, BARD1, BRCA, CFTR, CHRM1, CHRM4, CYP2C9, CYP3A4,; also recorded: DRD3, EPAS1, GMNN, GPR183, HIF1A, HNF4A, HTT, IDH1, IL1B, MAPT,; also recorded: MDM2, MDM4, MITF, NFKB1, NOD1, NOD2, PLIN5, RELA, SMAD3, TDP1,; also recorded: TNF, TNFRSF10B, TUBB
Cc1ccc(S(=O)(=O)Nc2cccc3cccnc23)cc1 [Gr-3B] | 0 | 0 | YES; | Potential targets: human protein targets (confirmed) (human protein targets): ADRB2, AGTR1, APLNR, ARNT, BARD1, BRCA1, CCR6, CFTR, CHRM4,; also recorded: CXCR6, DRD3, EPAS1, GOPC, HIF1A, HTT, IL1B, MAP1LC3A, MDM2,; also recorded: MDM4, MITF, NFE2L2, NOD1, NOD2, NOD2, RR2E3, OPRD1, OPRK1,; also recorded: OPRM1, PRNP, RIPK2, S1PR1, S1PR4, SIX1, SLC12A5, SMAD3, TACC3,; also recorded: TARDBP, TDP1, TLR9, TNF
O=C(Nc1ccc(Cl)c(Cl)c1)c1ccc([N+](=O)[O-])o1 [Gr-1G] | 0 | 0 |  | 
O=C(NCc1cccnc1)/C(=C\c1ccc(Br)cc1)S(=O)(=O)c1ccccc1 [Gr-7B] | 0 | 0 | YES; | Assay 21: Potential killing effects on HTB-178 tumor cells [2]: YES; Toxicity / viability of HTB-178 lung tumor cells [2]: exerted more pronounced toxicity; also recorded: significantly reduce the viability
COC(=O)CCc1sc2c(c1[N+](=O)[O-])NC(=O)CCC2 [O20] | 0 | 0 |  | 
COc1ccc(C(=O)/C=C/c2cccc(Cl)c2)c(OC)c1 [Gr-4C] | 0 | 0 |  | 
COc1ccc(C(=O)/C=C/c2ccc(F)cc2)c(OC)c1 [Gr-4A] | 0 | 0 |  | 

Source: patent US11413278B2, “Compounds and methods for promoting stress resistance” (priority 2015, dated 2022)
